Source: patent US20250353891A1 (MEDIMMUNE LIMITED, priority 2022, published 2025)
pEC50: −log10 of the molar value. Starred links: 1 amine or outer side, 2 acyl side, 3 side chain; linkers in the order of their positions; H or OH if unused. Non-standard residues stand in square brackets, D forms with d. Residues, ends and D or L forms follow the SMILES beside them. Groups on a side chain read outwards from the residue. *: point of attachment. C20 diacid = O=C(O)CCCCCCCCCCCCCCCCCCC(=O)*; C18 diacid = O=C(O)CCCCCCCCCCCCCCCCC(=O)*; γGlu = O=C(O)[C@H](CCC(=O)[*:2])N[*:1]; αMeF = C[C@](N)(Cc1ccccc1)C(=O)O; AEEA = NCCOCCOCC(=O)O; Aib = CC(C)(N)C(=O)O

Experiments:
[1] = molecular target: human GLP-1 receptor (hGLP-1R) (Homo sapiens, UniProt P43220); test: cAMP production (HTRF) in CHO cells expressing hGLP-1R; assay type: cell-based; parameters: expressed in transfected cells; settings: for pEC50: Table 6, peptides modified at position 17, cAMP in CHO hGLP-1R cells, geometric mean, read-out: hGLP-1R EC50; for % Relative Potency Ratio: Table 6, % GLP-1R activity relative to GLP-1 / % GlucR activity relative to glucagon
Outline: (§1)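 Potency values represent EC50 from 4-parameter logistic curves of HTRF % Delta F signal. Receptor-expressing CHO cells (hGCGR 2×10^5 cells/mL, hGLP-1R 1×10^5 cells/mL) were exposed for 30 min at room temperature before two-step cAMP detection.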

[2] = molecular target: human glucagon receptor (hGCGR) (Homo sapiens, UniProt P47871); test: cAMP production (HTRF) in CHO cells expressing hGCGR; assay type: cell-based; parameters: expressed in transfected cells; settings: Table 6, peptides modified at position 17; cAMP in CHO hGCGR cells; geometric mean; read-out: hGluc-R EC50
Outline: as §1

Chain of human GLP-1 receptor (hGLP-1R) (P43220 24-463): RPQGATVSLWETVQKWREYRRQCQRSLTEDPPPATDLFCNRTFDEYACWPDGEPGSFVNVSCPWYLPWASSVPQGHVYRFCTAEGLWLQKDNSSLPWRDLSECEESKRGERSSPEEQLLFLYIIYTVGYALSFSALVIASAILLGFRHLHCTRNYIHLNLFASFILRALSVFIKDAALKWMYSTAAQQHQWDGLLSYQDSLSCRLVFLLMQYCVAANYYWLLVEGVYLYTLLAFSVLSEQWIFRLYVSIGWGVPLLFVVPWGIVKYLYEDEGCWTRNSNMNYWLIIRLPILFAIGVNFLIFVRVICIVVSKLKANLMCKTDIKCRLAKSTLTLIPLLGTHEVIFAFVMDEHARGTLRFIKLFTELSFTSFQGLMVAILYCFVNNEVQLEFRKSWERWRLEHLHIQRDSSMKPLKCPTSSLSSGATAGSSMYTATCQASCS
Chain of human glucagon receptor (hGCGR) (P47871 26-477): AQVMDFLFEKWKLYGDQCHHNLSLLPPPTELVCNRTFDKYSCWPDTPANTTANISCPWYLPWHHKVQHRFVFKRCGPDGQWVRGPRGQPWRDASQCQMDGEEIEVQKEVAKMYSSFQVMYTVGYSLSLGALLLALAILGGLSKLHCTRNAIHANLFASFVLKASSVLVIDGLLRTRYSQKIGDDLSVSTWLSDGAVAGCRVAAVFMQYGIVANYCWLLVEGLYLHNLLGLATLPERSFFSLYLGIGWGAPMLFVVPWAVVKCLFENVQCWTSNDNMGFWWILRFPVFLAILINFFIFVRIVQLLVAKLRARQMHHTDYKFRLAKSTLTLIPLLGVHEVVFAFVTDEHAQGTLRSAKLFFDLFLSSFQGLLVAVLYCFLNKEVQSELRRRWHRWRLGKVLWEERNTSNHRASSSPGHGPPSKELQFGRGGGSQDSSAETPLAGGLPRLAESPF

pEC50 [1] | % Relative Potency Ratio [1] | pEC50 [2] | Compound
11.17 | 18.0 | 10.21 | CC(C)C[C@H](NC(=O)[C@H](CC(C)C)NC(=O)[C@H](Cc1c[nH]c2ccccc12)NC(=O)[C@H](CCC(N)=O)NC(=O)[C@@H](NC(=O)[C@H](Cc1ccccc1)NC(=O)[C@H](CC(=O)O)NC(=O)[C@H](CCCNC(=N)N)NC(=O)[C@H](C)NC(=O)[C@H](CCCNC(=N)N)NC(=O)[C@H](CCCCNC(=O)COCCOCCNC(=O)COCCOCCNC(=O)CC[C@H](NC(=O)CCCCCCCCCCCCCCCCCCC(=O)O)C(=O)O)NC(=O)[C@@H](NC(=O)[C@H](CC(=O)O)NC(=O)[C@H](CC(C)C)NC(=O)[C@](C)(Cc1ccccc1)NC(=O)[C@H](CCCCN)NC(=O)[C@H](CO)NC(=O)[C@@H](NC(=O)[C@H](CC(=O)O)NC(=O)[C@H](CO)NC(=O)[C@@H](NC(=O)[C@H](Cc1ccccc1)NC(=O)[C@@H](NC(=O)CNC(=O)[C@H](CCC(N)=O)NC(=O)C(C)(C)NC(=O)[C@@H](N)Cc1c[nH]cn1)[C@@H](C)O)[C@@H](C)O)C(C)C)[C@@H](C)O)C(C)C)C(=O)N[C@@H](C)C(=O)NC(C)(C)C(=O)NCC(N)=O [Peptide 475] (H-H[Aib]QGTFTSDVSK[αMeF]LDTK([AEEA-AEEA-γGlu-C20 diacid])RARDFVQWLLA[Aib]G-NH2)
10.24 | 3.6 | 9.98 | CC(C)C[C@H](NC(=O)[C@H](CC(C)C)NC(=O)[C@H](Cc1c[nH]c2ccccc12)NC(=O)[C@H](CCCNC(=N)N)NC(=O)[C@@H](NC(=O)[C@H](Cc1ccccc1)NC(=O)[C@H](CC(=O)O)NC(=O)[C@H](CCC(N)=O)NC(=O)[C@H](C)NC(=O)[C@H](CCCNC(=N)N)NC(=O)[C@H](CCCCNC(=O)COCCOCCNC(=O)COCCOCCNC(=O)CC[C@H](NC(=O)CCCCCCCCCCCCCCCCC(=O)O)C(=O)O)NC(=O)[C@@H](NC(=O)[C@H](CC(=O)O)NC(=O)[C@H](CC(C)C)NC(=O)[C@](C)(Cc1ccccc1)NC(=O)[C@H](CCCCN)NC(=O)[C@H](CO)NC(=O)[C@@H](NC(=O)[C@H](CC(=O)O)NC(=O)[C@H](CO)NC(=O)[C@@H](NC(=O)[C@H](Cc1ccccc1)NC(=O)[C@@H](NC(=O)CNC(=O)[C@H](CCC(N)=O)NC(=O)C(C)(C)NC(=O)[C@@H](N)Cc1c[nH]cn1)[C@@H](C)O)[C@@H](C)O)C(C)C)[C@@H](C)O)C(C)C)C(=O)N[C@@H](C)C(=O)NC(C)(C)C(=O)NCC(N)=O [Peptide 476] (H-H[Aib]QGTFTSDVSK[αMeF]LDTK([AEEA-AEEA-γGlu-C18 diacid])RAQDFVRWLLA[Aib]G-NH2)
11.04 | 40.9 | 9.72 | CC(C)C[C@H](NC(=O)[C@H](Cc1c[nH]c2ccccc12)NC(=O)[C@H](CCCNC(=N)N)NC(=O)[C@@H](NC(=O)[C@H](Cc1ccccc1)NC(=O)[C@H](CC(=O)O)NC(=O)[C@H](CCC(N)=O)NC(=O)[C@H](C)NC(=O)[C@H](CCCNC(=N)N)NC(=O)[C@H](CCCCNC(=O)COCCOCCNC(=O)COCCOCCNC(=O)CC[C@H](NC(=O)CCCCCCCCCCCCCCCCC(=O)O)C(=O)O)NC(=O)[C@@H](NC(=O)[C@H](CC(=O)O)NC(=O)[C@H](CC(C)C)NC(=O)[C@](C)(Cc1ccccc1)NC(=O)[C@H](CCCCN)NC(=O)[C@H](CO)NC(=O)[C@@H](NC(=O)[C@H](CC(=O)O)NC(=O)[C@H](CO)NC(=O)[C@@H](NC(=O)[C@H](Cc1ccccc1)NC(=O)[C@@H](NC(=O)CNC(=O)[C@H](CCC(N)=O)NC(=O)C(C)(C)NC(=O)[C@@H](N)Cc1c[nH]cn1)[C@@H](C)O)[C@@H](C)O)C(C)C)[C@@H](C)O)C(C)C)C(=O)N[C@@H](CC(C)C)C(=O)N[C@@H](CCC(=O)O)C(=O)NC(C)(C)C(=O)N[C@@H](CCCCN)C(N)=O [Peptide 478] (H-H[Aib]QGTFTSDVSK[αMeF]LDTK([AEEA-AEEA-γGlu-C18 diacid])RAQDFVRWLLE[Aib]K-NH2)

More lines, now with the values behind:

Compound | pEC50 [1] | % Relative Potency Ratio [1] | pEC50 [2]
CC(C)C[C@H](NC(=O)[C@H](Cc1c[nH]c2ccccc12)NC(=O)[C@H](CCC(N)=O)NC(=O)[C@@H](NC(=O)[C@H](Cc1ccccc1)NC(=O)[C@H](CC(=O)O)NC(=O)[C@H](CCC(N)=O)NC(=O)[C@H](C)NC(=O)[C@H](CCCNC(=N)N)NC(=O)[C@H](CCCCNC(=O)COCCOCCNC(=O)COCCOCCNC(=O)CC[C@H](NC(=O)CC[C@H](NC(=O)CCCCCCCCCCCCCCCCCCC(=O)O)C(=O)O)C(=O)O)NC(=O)[C@@H](NC(=O)[C@H](CC(=O)O)NC(=O)[C@H](CC(C)C)NC(=O)[C@](C)(Cc1ccccc1)NC(=O)[C@H](CCCCN)NC(=O)[C@H](CO)NC(=O)[C@@H](NC(=O)[C@H](CC(=O)O)NC(=O)[C@H](CO)NC(=O)[C@@H](NC(=O)[C@H](Cc1ccccc1)NC(=O)[C@@H](NC(=O)CNC(=O)[C@H](CCC(N)=O)NC(=O)C(C)(C)NC(=O)[C@@H](N)Cc1c[nH]cn1)[C@@H](C)O)[C@@H](C)O)C(C)C)[C@@H](C)O)C(C)C)C(=O)N[C@@H](CC(C)C)C(=O)N[C@@H](CCC(=O)O)C(=O)NC(C)(C)C(=O)NCC(N)=O [Peptide 469] (H-H[Aib]QGTFTSDVSK[αMeF]LDTK([AEEA-AEEA-γGlu-γGlu-C20 diacid])RAQDFVQWLLE[Aib]G-NH2) | 9.59 | 4.2 | 9.27
CC(C)C[C@H](NC(=O)[C@H](Cc1c[nH]c2ccccc12)NC(=O)[C@H](CCC(N)=O)NC(=O)[C@@H](NC(=O)[C@H](Cc1ccccc1)NC(=O)[C@H](CC(=O)O)NC(=O)[C@H](CCCNC(=N)N)NC(=O)[C@H](C)NC(=O)[C@H](CCCNC(=N)N)NC(=O)[C@H](CCCCNC(=O)COCCOCCNC(=O)COCCOCCNC(=O)CC[C@H](NC(=O)CCCCCCCCCCCCCCCCCCC(=O)O)C(=O)O)NC(=O)[C@H](CCCCN)NC(=O)[C@H](CC(=O)O)NC(=O)[C@H](CC(C)C)NC(=O)[C@](C)(Cc1ccccc1)NC(=O)[C@H](CCCCN)NC(=O)[C@H](CO)NC(=O)[C@@H](NC(=O)[C@H](CC(=O)O)NC(=O)[C@H](CO)NC(=O)[C@@H](NC(=O)[C@H](Cc1ccccc1)NC(=O)[C@@H](NC(=O)CNC(=O)[C@H](CCC(N)=O)NC(=O)C(C)(C)NC(=O)[C@@H](N)Cc1c[nH]cn1)[C@@H](C)O)[C@@H](C)O)C(C)C)C(C)C)C(=O)N[C@@H](CC(C)C)C(=O)NC(C)(C)C(=O)N[C@@H](CCC(=O)O)C(N)=O [Peptide 470] (H-H[Aib]QGTFTSDVSK[αMeF]LDKK([AEEA-AEEA-γGlu-C20 diacid])RARDFVQWLL[Aib]E-NH2; N-terminus assumed) | 10.25 | 1.1 | 10.52
CC(C)C[C@H](NC(=O)[C@H](Cc1c[nH]c2ccccc12)NC(=O)[C@H](CCC(N)=O)NC(=O)[C@@H](NC(=O)[C@H](Cc1ccccc1)NC(=O)[C@H](CC(=O)O)NC(=O)[C@H](CCCNC(=N)N)NC(=O)[C@H](C)NC(=O)[C@H](CCCNC(=N)N)NC(=O)[C@H](CCCCNC(=O)COCCOCCNC(=O)COCCOCCNC(=O)CC[C@H](NC(=O)CCCCCCCCCCCCCCCCCCC(=O)O)C(=O)O)NC(=O)[C@H](CCCNC(=N)N)NC(=O)[C@H](CC(=O)O)NC(=O)[C@H](CC(C)C)NC(=O)[C@](C)(Cc1ccccc1)NC(=O)[C@H](CCCCN)NC(=O)[C@H](CO)NC(=O)[C@@H](NC(=O)[C@H](CC(=O)O)NC(=O)[C@H](CO)NC(=O)[C@@H](NC(=O)[C@H](Cc1ccccc1)NC(=O)[C@@H](NC(=O)CNC(=O)[C@H](CCC(N)=O)NC(=O)C(C)(C)NC(=O)[C@@H](N)Cc1c[nH]cn1)[C@@H](C)O)[C@@H](C)O)C(C)C)C(C)C)C(=O)N[C@@H](CC(C)C)C(=O)NC(C)(C)C(=O)N[C@@H](CCC(=O)O)C(N)=O [Peptide 471] | 9.99 | 1.2 | 10.20
CC(C)C[C@H](NC(=O)[C@H](Cc1c[nH]c2ccccc12)NC(=O)[C@H](CCC(N)=O)NC(=O)[C@@H](NC(=O)[C@H](Cc1ccccc1)NC(=O)[C@H](CC(=O)O)NC(=O)[C@H](CCCNC(=N)N)NC(=O)[C@H](C)NC(=O)[C@H](CCCNC(=N)N)NC(=O)[C@H](CCCCNC(=O)COCCOCCNC(=O)COCCOCCNC(=O)CC[C@H](NC(=O)CCCCCCCCCCCCCCCCC(=O)O)C(=O)O)NC(=O)[C@H](CCCNC(=N)N)NC(=O)[C@H](CC(=O)O)NC(=O)[C@H](CC(C)C)NC(=O)[C@](C)(Cc1ccccc1)NC(=O)[C@H](CCCCN)NC(=O)[C@H](CO)NC(=O)[C@@H](NC(=O)[C@H](CC(=O)O)NC(=O)[C@H](CO)NC(=O)[C@@H](NC(=O)[C@H](Cc1ccccc1)NC(=O)[C@@H](NC(=O)CNC(=O)[C@H](CCC(N)=O)NC(=O)C(C)(C)NC(=O)[C@@H](N)Cc1c[nH]cn1)[C@@H](C)O)[C@@H](C)O)C(C)C)C(C)C)C(=O)N[C@@H](CC(C)C)C(=O)NC(C)(C)C(=O)N[C@@H](CCC(=O)O)C(N)=O [Peptide 473] (H-H[Aib]QGTFTSDVSK[αMeF]LDRK([AEEA-AEEA-γGlu-C18 diacid])RARDFVQWLL[Aib]E-NH2; N-terminus assumed) | 10.94 | 2.4 | 10.85
CC(C)C[C@H](NC(=O)[C@H](CC(C)C)NC(=O)[C@H](Cc1c[nH]c2ccccc12)NC(=O)[C@H](CCC(N)=O)NC(=O)[C@@H](NC(=O)[C@H](Cc1ccccc1)NC(=O)[C@H](CC(=O)O)NC(=O)[C@H](CCCNC(=N)N)NC(=O)[C@H](C)NC(=O)[C@H](CCCNC(=N)N)NC(=O)[C@H](CCCCNC(=O)COCCOCCNC(=O)COCCOCCNC(=O)CC[C@H](NC(=O)CCCCCCCCCCCCCCCCC(=O)O)C(=O)O)NC(=O)[C@@H](NC(=O)[C@H](CC(=O)O)NC(=O)[C@H](CC(C)C)NC(=O)[C@](C)(Cc1ccccc1)NC(=O)[C@H](CCCCN)NC(=O)[C@H](CO)NC(=O)[C@@H](NC(=O)[C@H](CC(=O)O)NC(=O)[C@H](CO)NC(=O)[C@@H](NC(=O)[C@H](Cc1ccccc1)NC(=O)[C@@H](NC(=O)CNC(=O)[C@H](CCC(N)=O)NC(=O)C(C)(C)NC(=O)[C@@H](N)Cc1c[nH]cn1)[C@@H](C)O)[C@@H](C)O)C(C)C)[C@@H](C)O)C(C)C)C(=O)N[C@@H](C)C(=O)NC(C)(C)C(=O)NCC(N)=O [Peptide 474] (H-H[Aib]QGTFTSDVSK[αMeF]LDTK([AEEA-AEEA-γGlu-C18 diacid])RARDFVQWLLA[Aib]G-NH2; N-terminus assumed) | 11.09 | 14.0 | 10.24
